Data reported in ChEMBL document CHEMBL1201862, “PubChem BioAssay data set” (2004).
Calls of active or inactive are those of the source.

Assays:
[1] = target: T1, COUP transcription factor 2 (Homo sapiens, UniProt P24468); test: Luminescence-based cell-based high throughput dose response assay to identify inhibitors of COUP-TFII (NR2F2).; type: functional;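 note: HEK293 cells transiently cotransfected with COUP-TFII expression vector and reporter; luciferase reporter luminescence driven by COUP-TFII from the pX2-168 reporter plasmid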
T1 sequence (P24468 whole entry): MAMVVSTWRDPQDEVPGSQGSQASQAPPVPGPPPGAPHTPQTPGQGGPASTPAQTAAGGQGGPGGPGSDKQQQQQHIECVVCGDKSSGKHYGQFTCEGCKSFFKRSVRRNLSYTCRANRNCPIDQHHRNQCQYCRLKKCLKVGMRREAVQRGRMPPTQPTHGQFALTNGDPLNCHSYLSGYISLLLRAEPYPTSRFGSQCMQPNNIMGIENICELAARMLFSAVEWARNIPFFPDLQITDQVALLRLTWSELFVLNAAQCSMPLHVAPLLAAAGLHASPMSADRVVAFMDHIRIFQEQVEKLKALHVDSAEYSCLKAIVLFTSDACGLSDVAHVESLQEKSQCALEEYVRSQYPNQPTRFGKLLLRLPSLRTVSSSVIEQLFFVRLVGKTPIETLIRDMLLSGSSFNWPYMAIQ

[2] = target: Photoreceptor-specific nuclear receptor (Homo sapiens, UniProt Q9Y5X4); type: functional, cell-based;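 note: CHO-S cells with Gal4-NCOR and VP16-NR2E3 two-hybrid luciferase reporter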
[3] = target: T2, Probable nicotinate-nucleotide adenylyltransferase (Staphylococcus aureus (strain N315), UniProt P65502); type: functional, Staphylococcus aureus subsp. aureus N315;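 for IC50 Mean: confirmatory dose-response retesting of NadD inhibitor hits first found in an ultra-high-throughput screen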
[4] = target: T3, Small ubiquitin-related modifier 1 (Homo sapiens, UniProt P63165); test: inhibitors of SUMO1 partner interactions, dose response, biochemical, FRET (AID 624383); type: functional; conditions: read-out: IC50_Mean
[5] = target: T3, Small ubiquitin-related modifier 1; test: inhibitors of SUMO1 peptide binding, dose response, biochemical, fluorescence polarization, uHTS hits (AID 624382); type: functional; conditions: read-out: IC50_Mean
[6] = target: T4, Rac GTPase-activating protein 1 (Homo sapiens, UniProt Q9H0H5); test: MgcRacGAP GTPase-activating activity inhibitors, confirmation, biochemical, ADP Hunter fluorescence, primary and confirmatory (AID 624330); type: functional
T4 sequence (Q9H0H5 whole entry): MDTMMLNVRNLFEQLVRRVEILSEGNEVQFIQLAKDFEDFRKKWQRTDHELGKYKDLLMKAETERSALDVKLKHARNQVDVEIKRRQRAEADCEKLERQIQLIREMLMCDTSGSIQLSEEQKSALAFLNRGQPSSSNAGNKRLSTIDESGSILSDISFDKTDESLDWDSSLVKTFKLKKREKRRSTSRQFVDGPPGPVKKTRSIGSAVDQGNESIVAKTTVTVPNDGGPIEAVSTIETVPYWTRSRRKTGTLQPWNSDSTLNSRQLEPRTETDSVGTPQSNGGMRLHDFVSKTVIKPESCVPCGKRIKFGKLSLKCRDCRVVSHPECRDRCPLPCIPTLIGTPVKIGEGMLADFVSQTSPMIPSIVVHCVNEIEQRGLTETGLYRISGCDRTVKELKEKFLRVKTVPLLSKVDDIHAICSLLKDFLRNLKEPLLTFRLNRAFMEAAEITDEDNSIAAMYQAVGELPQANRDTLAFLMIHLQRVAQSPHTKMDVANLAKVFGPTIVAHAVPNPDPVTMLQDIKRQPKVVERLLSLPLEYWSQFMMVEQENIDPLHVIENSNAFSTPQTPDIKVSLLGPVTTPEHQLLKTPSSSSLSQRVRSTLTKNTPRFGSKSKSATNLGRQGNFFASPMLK

[7] = target: T2, Probable nicotinate-nucleotide adenylyltransferase; type: functional, Staphylococcus aureus subsp. aureus N315; conditions: read-out: IC50_Mean
[8] = HeLa cell cytotoxicity, dose response, cytotoxicity control for MgcRacGAP inhibitor project (AID 624300); type: functional
[9] = target: T5, Aryl hydrocarbon receptor (Homo sapiens, UniProt P35869); conditions: Potency;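 note: confirmatory quantitative high-throughput screen measuring activation of the AhR signaling pathway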
T5 sequence (P35869 whole entry): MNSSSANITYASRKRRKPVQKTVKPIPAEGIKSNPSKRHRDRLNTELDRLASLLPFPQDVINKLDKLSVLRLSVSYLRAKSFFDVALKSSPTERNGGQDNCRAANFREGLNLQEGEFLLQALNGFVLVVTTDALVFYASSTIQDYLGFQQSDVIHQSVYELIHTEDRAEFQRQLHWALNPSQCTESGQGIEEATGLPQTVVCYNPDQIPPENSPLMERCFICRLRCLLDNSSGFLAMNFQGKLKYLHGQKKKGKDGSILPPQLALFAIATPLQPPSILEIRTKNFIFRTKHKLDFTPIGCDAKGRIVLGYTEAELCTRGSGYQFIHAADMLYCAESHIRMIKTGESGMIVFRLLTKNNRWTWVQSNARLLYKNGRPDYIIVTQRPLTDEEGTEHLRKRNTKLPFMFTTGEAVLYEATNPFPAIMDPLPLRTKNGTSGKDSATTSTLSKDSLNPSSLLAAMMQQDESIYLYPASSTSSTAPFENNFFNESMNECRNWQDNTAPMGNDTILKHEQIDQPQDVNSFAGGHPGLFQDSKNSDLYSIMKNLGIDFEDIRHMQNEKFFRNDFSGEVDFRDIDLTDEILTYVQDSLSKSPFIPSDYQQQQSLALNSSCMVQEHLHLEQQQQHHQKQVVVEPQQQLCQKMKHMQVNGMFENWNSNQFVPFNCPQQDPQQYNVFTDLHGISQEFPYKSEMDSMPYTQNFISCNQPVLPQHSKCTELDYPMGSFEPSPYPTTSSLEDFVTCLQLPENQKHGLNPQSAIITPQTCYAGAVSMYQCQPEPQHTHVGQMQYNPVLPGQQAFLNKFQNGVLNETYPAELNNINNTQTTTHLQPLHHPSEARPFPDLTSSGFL

[10] = target: Beta Lactamase (Pseudomonas aeruginosa, UniProt Q932Y6); test: beta-lactamase reporter inhibitor potency, dose response, artefact control for NOD2-RIPK2 interaction inhibitor project, BLA reporter cells, FRET fluorescence (AID 651552); type: functional, cell-based
[11] = Fluorescence-based cell-based high throughput dose response assay for inhibitors of the interaction of nucleotide-binding oligomerization domain containing 2 (NOD2) and the receptor-interacting serine-threonine kinase 2 (RIPK2).; type: functional; conditions: Homo sapiens

T2 sequence (P65502 whole entry): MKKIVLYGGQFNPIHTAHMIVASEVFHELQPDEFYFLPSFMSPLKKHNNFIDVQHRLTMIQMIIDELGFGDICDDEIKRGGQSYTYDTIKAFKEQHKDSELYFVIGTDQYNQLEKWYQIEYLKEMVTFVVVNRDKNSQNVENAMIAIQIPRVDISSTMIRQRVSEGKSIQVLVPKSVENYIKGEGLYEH
T3 sequence (P63165 whole entry): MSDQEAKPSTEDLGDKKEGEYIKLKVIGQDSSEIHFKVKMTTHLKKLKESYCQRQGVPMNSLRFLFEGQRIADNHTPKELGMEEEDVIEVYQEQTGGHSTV
Chain of Beta Lactamase (Q932Y6 whole entry, the tested form may be a part): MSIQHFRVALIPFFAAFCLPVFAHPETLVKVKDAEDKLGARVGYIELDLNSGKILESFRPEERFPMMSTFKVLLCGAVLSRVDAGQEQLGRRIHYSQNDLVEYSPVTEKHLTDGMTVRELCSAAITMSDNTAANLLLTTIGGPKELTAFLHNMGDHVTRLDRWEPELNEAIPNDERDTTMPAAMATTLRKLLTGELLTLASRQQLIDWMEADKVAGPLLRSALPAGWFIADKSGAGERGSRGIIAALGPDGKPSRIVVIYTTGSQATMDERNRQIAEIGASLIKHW
Chain of Photoreceptor-specific nuclear receptor (Q9Y5X4 whole entry, the tested form may be a part): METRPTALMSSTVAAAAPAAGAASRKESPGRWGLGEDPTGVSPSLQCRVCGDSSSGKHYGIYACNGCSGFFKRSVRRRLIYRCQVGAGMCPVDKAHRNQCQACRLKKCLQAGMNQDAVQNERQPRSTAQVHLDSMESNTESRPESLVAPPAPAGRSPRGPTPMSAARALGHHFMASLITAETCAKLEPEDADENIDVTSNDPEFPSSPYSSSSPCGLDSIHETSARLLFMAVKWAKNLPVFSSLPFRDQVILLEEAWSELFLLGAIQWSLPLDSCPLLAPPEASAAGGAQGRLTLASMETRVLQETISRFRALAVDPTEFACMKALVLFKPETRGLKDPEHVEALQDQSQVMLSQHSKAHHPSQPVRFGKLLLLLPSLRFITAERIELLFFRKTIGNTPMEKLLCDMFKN

With `c1ccc(C(Cc2nc(-c3ccncc3)no2)c2ccccc2)cc1` the IC50 [1] was 14 µM (inactive) and the IC50 [2] was 5.57 µM (active).
With `Cc1cc(NCCCCCCCNc2cc(C)nc3cc([N+](=O)[O-])ccc23)c2ccc([N+](=O)[O-])cc2n1` the IC50 [3] was 15.2 µM (active), the IC50 [4] was 2.12 µM (active) and the IC50 [5] was > 66.6 µM (inactive). The IC50 [6] was 26.1 µM (active), the IC50 [7] was 23.2 µM (active) and the CC50 [8] was 37.8 µM (active).
With `Nc1c(Cl)c(Cl)c(Cl)c(Cl)c1Cl` the AC50 [9] was 44.7 µM (inconclusive).
In the case of `CCOC(=O)[C@]12Cc3cc(Cl)ccc3[C@H]1N(C(C)C)C(=O)c1ccccc12`, the IC50 [10] is reported as 45.2 µM (inactive) and the IC50 [11] is reported as 2.21 µM (active).
For `O=[N+]([O-])c1cc(C(F)(F)F)c(Cl)c([N+](=O)[O-])c1Nc1ncc(C(F)(F)F)cc1Cl` [FLUAZINAM], the AC50 [9] was 31.6 µM (inconclusive).
